Reference: ChEMBL document CHEMBL1201862, “PubChem BioAssay data set” (2004)
Activity calls are given as the source filed them.

Assays:
[1] = molecular target: T1, Heat shock factor protein 1 (Mus musculus, UniProt P38532); experiment: decrease of HSF1-responsive luciferase luminescence – cell-based, NIH3T3, dose retest, confirmation (AID 2382); format: functional;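 further: NIH3T3 fibroblasts with HSF1-driven luciferase reporter stressed by proteasome inhibitor MG132; luminescence from HSF1-driven luciferase expression after 8 hours of MG132 stress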
T1 sequence (P38532 whole entry): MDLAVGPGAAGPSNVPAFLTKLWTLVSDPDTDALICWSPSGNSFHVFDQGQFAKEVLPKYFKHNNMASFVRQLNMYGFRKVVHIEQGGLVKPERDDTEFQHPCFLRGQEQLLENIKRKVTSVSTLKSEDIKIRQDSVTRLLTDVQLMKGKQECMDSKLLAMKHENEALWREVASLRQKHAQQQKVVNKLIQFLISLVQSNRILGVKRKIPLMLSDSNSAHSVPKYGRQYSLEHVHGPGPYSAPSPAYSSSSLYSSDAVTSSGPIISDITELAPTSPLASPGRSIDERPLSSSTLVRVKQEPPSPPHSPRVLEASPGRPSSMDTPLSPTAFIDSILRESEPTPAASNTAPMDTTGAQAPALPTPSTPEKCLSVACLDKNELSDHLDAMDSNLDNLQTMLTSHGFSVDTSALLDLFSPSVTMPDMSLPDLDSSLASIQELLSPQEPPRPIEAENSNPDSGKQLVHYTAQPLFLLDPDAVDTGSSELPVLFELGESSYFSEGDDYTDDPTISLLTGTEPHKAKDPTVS

Protein RecA [2] = molecular target: T2, Protein RecA (Mycobacterium tuberculosis, UniProt P9WHJ3); experiment: GFP-RecA MOA-DTT Measured in Biochemical System Using Plate Reader - 2047-05_Inhibitor_Dose_DryPowder_Activity. [Related pubchem assays (depositor defined):AID2223]; set-up: species or system Mycobacterium tuberculosis H37Rv
T2 sequence (P9WHJ3 whole entry): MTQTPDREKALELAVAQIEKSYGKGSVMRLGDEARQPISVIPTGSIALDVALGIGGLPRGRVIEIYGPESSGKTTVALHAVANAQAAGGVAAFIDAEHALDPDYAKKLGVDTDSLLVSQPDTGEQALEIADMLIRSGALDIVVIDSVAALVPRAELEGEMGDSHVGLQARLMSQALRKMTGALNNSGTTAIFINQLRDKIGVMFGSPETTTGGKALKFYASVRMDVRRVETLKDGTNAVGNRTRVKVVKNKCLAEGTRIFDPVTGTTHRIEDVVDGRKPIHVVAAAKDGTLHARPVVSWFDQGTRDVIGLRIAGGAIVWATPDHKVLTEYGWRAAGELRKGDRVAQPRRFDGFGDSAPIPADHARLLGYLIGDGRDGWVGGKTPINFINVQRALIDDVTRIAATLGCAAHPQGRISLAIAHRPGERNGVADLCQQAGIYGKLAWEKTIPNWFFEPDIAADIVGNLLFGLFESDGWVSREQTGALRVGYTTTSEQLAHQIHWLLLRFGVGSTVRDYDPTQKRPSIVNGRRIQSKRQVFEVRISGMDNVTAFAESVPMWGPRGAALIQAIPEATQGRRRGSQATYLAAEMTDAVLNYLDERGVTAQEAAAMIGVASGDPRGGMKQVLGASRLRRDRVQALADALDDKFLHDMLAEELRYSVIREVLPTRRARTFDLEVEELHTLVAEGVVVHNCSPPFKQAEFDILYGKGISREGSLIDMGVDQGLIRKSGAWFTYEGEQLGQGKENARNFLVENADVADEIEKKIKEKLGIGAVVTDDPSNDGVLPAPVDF

[3] = molecular target: Dual specificity protein phosphatase 3 (Homo sapiens, UniProt P51452); experiment: VHR1 phosphatase inhibitors, primary screen, biochemical, absorbance, uHTS (AID 1654)
Phospholipase A2 = Phospholipase A2 (Homo sapiens, UniProt P04054); format: functional;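 further: confirmatory dose-response counterscreen on phospholipase A2, testing hits that came from an ultra-high-throughput screen for ATG4B inhibitors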
[4] = reduced cellular PGC1a acetyl-lysine signal – cell-based, cherry-picked samples, dose response (AID 720514); format: functional;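 further: potency may reflect raised or lowered acetylation signal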
[5] = fluconazole-exposed Candida albicans growth modulators – fluorescence, retest, confirmation (AID 2467); format: functional, cell-based
[6] = NIH-3T3 fibroblast cytotoxicity, dose response, cytotoxicity control, cell-based, fluorescence, Alamar Blue, secondary assay (AID 2327); format: functional;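 further: NIH-3T3 mouse fibroblasts cultured with fluconazole at 8 µg/mL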
[7] = molecular target: T3, Replicative DNA helicase DnaB (Mycobacterium tuberculosis, UniProt P9WMR3); experiment: DnaB Intein secondary assay Measured in Biochemical System Using Plate Reader - 2047-04_Inhibitor_Dose_DryPowder_Activity. [Related pubchem assays (depositor defined):AID2223]
T3 sequence (P9WMR3 whole entry): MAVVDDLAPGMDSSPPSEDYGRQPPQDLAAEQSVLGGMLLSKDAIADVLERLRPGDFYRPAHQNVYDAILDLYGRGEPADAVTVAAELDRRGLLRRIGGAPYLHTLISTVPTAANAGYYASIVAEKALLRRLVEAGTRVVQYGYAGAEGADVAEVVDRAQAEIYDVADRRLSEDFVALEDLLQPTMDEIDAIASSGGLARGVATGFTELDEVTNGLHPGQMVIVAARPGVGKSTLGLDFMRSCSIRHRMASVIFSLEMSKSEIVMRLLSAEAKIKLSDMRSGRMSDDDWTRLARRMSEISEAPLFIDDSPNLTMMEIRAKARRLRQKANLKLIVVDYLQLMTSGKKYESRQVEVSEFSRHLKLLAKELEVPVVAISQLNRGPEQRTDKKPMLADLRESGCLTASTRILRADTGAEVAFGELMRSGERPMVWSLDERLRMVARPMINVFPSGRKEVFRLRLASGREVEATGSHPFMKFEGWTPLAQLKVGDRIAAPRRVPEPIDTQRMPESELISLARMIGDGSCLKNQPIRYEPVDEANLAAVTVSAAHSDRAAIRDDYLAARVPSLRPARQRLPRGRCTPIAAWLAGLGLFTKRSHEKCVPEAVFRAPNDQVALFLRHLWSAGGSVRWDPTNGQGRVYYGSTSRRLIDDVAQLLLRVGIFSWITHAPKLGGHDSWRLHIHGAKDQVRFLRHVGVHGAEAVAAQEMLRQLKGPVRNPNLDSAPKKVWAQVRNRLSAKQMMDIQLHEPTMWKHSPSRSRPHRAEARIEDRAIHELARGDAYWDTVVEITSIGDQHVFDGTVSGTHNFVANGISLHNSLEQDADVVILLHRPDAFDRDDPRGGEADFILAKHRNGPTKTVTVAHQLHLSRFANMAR

Protein RecA [8] = molecular target: T2, Protein RecA; experiment: RecA Intein Measured in Biochemical System Using Plate Reader - 2047-02_Inhibitor_Dose_DryPowder_Activity. [Related pubchem assays (depositor defined):AID2223]; set-up: species or system Mycobacterium tuberculosis H37Rv
[9] = molecular target: Cell division cycle 7-related protein kinase (Homo sapiens, UniProt O00311); format: functional;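 further: value obtained from a kinome-wide kinase panel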
[10] = molecular target: Proto-oncogene tyrosine-protein kinase ROS (Homo sapiens, UniProt P08922); format: functional;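 further: ROS1 tested as one member of a kinome-wide kinase panel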
Wee1-like protein kinase = Wee1-like protein kinase (Homo sapiens, UniProt P30291); experiment: Navigating the Kinome. Panel member name: WEE1; format: functional
[11] = molecular target: Glycogen synthase kinase-3 beta (Homo sapiens, UniProt P49841); format: functional;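 further: value comes from a broad kinome profiling panel, with GSK3B as the panel member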
[12] = molecular target: Tyrosine-protein kinase SYK (Homo sapiens, UniProt P43405); format: functional

Sequence of Glycogen synthase kinase-3 beta (P49841 whole entry): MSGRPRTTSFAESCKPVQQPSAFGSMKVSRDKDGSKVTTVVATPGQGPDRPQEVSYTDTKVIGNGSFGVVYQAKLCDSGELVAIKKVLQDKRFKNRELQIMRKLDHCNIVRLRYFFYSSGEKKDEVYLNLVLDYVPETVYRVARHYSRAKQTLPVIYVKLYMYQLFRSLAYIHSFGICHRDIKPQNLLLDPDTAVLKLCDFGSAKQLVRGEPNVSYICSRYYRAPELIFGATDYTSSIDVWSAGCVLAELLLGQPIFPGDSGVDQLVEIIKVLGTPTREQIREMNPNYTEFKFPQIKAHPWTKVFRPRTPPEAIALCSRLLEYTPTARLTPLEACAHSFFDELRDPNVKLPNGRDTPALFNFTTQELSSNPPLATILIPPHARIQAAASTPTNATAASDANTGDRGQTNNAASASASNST
Sequence of Proto-oncogene tyrosine-protein kinase ROS (P08922 whole entry): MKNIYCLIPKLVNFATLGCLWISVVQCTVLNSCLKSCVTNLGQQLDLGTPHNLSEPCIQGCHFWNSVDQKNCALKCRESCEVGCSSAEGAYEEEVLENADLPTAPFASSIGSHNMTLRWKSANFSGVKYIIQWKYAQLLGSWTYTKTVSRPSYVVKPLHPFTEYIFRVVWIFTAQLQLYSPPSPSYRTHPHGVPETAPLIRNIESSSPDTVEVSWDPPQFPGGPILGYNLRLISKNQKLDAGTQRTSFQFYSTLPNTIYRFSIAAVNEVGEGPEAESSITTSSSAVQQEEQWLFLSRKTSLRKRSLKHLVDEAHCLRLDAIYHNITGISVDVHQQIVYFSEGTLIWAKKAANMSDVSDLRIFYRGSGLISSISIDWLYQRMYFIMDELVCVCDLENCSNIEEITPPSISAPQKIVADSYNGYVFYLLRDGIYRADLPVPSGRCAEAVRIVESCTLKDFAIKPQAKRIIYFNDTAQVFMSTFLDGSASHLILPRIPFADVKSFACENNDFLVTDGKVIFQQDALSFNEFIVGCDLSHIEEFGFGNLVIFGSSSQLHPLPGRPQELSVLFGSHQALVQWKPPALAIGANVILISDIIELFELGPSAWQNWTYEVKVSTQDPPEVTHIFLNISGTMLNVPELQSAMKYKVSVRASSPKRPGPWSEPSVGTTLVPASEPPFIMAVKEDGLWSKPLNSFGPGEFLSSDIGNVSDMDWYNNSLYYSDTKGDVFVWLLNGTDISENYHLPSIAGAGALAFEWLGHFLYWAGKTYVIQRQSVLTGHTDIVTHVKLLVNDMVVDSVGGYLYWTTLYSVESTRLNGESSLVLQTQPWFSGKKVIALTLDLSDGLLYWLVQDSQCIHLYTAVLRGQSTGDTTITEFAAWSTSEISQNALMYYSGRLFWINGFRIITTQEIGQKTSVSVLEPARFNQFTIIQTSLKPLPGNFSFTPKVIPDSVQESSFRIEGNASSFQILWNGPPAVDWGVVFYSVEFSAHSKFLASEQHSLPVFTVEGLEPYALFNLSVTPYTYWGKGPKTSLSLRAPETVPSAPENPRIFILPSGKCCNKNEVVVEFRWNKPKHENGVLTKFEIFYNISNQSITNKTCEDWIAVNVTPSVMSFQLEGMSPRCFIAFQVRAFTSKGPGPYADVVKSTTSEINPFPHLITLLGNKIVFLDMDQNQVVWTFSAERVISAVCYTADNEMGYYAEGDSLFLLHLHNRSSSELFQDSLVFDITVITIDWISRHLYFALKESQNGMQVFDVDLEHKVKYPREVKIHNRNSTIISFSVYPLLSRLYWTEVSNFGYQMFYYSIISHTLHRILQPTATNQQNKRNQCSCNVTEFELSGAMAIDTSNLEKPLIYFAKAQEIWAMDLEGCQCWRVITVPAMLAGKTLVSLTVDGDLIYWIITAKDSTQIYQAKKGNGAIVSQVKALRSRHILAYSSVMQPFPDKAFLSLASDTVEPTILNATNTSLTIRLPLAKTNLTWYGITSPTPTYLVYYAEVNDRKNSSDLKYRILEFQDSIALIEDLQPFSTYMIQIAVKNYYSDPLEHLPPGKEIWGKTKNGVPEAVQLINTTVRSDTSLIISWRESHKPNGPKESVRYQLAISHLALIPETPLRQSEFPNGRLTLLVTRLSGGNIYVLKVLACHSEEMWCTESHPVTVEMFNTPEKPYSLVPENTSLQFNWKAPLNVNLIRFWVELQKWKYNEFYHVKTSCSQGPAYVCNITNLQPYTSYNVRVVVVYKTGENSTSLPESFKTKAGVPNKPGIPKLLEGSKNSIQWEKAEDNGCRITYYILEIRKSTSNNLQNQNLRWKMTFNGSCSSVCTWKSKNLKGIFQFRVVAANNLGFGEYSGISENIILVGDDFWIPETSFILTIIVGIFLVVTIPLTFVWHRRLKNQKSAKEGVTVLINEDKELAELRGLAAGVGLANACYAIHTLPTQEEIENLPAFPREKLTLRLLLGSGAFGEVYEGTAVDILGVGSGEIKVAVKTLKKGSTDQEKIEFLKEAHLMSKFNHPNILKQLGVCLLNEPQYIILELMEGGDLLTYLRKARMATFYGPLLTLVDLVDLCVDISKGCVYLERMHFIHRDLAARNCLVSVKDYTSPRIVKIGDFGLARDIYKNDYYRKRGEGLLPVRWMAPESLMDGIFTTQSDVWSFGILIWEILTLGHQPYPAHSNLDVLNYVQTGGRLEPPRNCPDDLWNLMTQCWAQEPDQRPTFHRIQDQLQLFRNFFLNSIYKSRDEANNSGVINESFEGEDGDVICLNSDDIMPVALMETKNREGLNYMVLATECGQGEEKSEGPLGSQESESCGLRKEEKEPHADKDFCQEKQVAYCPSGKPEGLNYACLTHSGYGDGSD
Sequence of Phospholipase A2 (P04054 whole entry): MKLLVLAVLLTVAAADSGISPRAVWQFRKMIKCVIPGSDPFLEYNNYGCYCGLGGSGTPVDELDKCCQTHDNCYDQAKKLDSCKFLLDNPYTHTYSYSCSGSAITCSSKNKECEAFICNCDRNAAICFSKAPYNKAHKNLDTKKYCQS
Sequence of Wee1-like protein kinase (P30291 whole entry): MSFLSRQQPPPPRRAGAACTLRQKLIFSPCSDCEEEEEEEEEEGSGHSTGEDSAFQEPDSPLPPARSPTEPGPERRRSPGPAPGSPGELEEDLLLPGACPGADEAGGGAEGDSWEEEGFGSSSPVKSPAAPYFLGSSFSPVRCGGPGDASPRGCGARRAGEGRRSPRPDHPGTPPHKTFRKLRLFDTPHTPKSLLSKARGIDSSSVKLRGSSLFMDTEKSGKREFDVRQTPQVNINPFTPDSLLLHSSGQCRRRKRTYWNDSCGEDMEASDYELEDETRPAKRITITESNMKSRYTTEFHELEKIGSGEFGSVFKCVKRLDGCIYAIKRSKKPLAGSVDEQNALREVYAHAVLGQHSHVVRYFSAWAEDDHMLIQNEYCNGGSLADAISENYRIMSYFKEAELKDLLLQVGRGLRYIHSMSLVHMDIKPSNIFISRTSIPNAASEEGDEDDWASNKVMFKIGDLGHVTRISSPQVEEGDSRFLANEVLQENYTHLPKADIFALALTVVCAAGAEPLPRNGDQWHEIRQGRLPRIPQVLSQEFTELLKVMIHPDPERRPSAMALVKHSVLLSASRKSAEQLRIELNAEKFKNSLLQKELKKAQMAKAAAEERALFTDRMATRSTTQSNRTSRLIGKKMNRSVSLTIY
Sequence of Cell division cycle 7-related protein kinase (O00311 whole entry): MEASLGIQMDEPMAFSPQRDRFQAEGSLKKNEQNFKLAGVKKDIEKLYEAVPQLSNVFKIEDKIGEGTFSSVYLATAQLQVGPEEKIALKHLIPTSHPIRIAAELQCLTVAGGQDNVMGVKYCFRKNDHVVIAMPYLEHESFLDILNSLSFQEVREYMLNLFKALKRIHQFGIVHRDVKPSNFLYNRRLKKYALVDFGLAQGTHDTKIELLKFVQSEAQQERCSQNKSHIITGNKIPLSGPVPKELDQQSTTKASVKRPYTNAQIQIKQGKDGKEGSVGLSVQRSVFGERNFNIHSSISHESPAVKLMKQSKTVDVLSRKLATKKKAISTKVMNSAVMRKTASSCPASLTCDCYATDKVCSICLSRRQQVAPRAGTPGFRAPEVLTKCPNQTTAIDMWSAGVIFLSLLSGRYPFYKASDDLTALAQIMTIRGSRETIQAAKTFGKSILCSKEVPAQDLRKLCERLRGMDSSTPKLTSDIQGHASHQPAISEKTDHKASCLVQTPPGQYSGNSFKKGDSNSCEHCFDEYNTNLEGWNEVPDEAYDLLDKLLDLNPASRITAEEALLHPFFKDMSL
Sequence of Dual specificity protein phosphatase 3 (P51452 whole entry): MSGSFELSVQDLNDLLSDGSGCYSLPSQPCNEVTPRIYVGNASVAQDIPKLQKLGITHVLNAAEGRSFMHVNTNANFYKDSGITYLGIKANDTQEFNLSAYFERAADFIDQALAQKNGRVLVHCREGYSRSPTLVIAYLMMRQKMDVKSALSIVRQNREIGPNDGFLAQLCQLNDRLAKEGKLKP

In the case of `CC(C)c1ccc(-c2nnn(CCC(=O)O)n2)cc1`, the EC50 [1] is reported as < 160 nM (active).
With `CCn1nc(/C=C/c2ccccc2)nc2c(=O)n(C)c(=O)nc1-2` the AC50 (Protein RecA [2]) was 65 nM (active), the IC50 [3] was 2240 nM (active) and the IC50 (Phospholipase A2) was > 80000 nM (inactive). The AC50 [4] was 2870 nM (active), the EC50 [5] was 630 nM (active) and the EC50 [6] was 952 nM (inconclusive). The AC50 [7] was 184 nM (active) and the AC50 (Protein RecA [8]) was 60 nM (active).
In the case of `COc1cc2c(cc1Nc1nc(Nc3cccc(F)c3C(N)=O)c3cc[nH]c3n1)N(C(=O)CN(C)C)CC2`, the Ki [9] is reported as 631 nM (active), the Ki [10] is reported as 2.51 nM (active) and the Ki (Wee1-like protein kinase) is reported as > 2510 nM (inactive). For the same compound, the Ki [11] was > 3980 nM (inactive) and the Ki [12] was > 1580 nM (inactive).
